This is an account of results in ChEMBL document CHEMBL1681728, “An automated, polymer-assisted strategy for the preparation of urea and thiourea derivatives of 15-membered azalides as potential antimalarial chemotherapeutics” (Bioorg Med Chem, 2011).

Holding throughout (assay type): functional, organism-based
For assay [1], the system named is Plasmodium falciparum. Nature of the assay: Antimalarial activity against chloroquine-,pyrimethamine-resistant Plasmodium falciparum W2 assessed as inhibition of [3H]hypoxanthine incorporation after 96 hrs by microtiter plate scintillation counting.
The subject of assay [2] is Plasmodium falciparum. The assay can be described thus: Antimalarial activity against chloroquine-sensitive Plasmodium falciparum D6 assessed as inhibition of [3H]hypoxanthine incorporation after 96 hrs by microtiter plate scintillation counting.
The subject of assay [3] is Plasmodium falciparum. The assay can be described thus: Antimalarial activity against multidrug-resistant Plasmodium falciparum TM91C235 assessed as inhibition of [3H]hypoxanthine incorporation after 96 hrs by microtiter plate scintillation counting.

Broadly, the IC50 is the concentration at which inhibition is half-maximal.

With `CC[C@H]1OC(=O)[C@H](C)[C@@H](O[C@H]2C[C@@](C)(OC)[C@@H](O)[C@H](C)O2)[C@H](C)[C@@H](O[C@@H]2O[C@H](C)C[C@H](N(C)C)[C@H]2O)[C@](C)(O)C[C@@H](C)CN(CCCNC(=S)Nc2cccc(F)c2)[C@H](C)[C@@H](O)[C@]1(C)O`, the IC50 in the assay with Plasmodium falciparum [1] came to 200 nM; in the assay on Plasmodium falciparum [2] it was 511 nM; in the assay with Plasmodium falciparum [3], 116 nM.
Consider `CC[C@H]1OC(=O)[C@H](C)[C@@H](O[C@H]2C[C@@](C)(OC)[C@@H](O)[C@H](C)O2)[C@H](C)[C@@H](O[C@@H]2O[C@H](C)C[C@H](N(C)C)[C@H]2O)[C@](C)(O)C[C@@H](C)CN(CCCNC(=O)Nc2cc(F)ccc2C)[C@H](C)[C@@H](O)[C@]1(C)O`, for which the IC50 amounted to 53.2 nM in the assay on Plasmodium falciparum [1], 396 nM in the assay with Plasmodium falciparum [2] and 117 nM with Plasmodium falciparum [3].
`CC[C@H]1OC(=O)[C@H](C)[C@@H](O[C@H]2C[C@@](C)(OC)[C@@H](O)[C@H](C)O2)[C@H](C)[C@@H](O[C@@H]2O[C@H](C)C[C@H](N(C)C)[C@H]2O)[C@](C)(O)C[C@@H](C)CN(CCCNC(=O)Nc2cccc(Cl)c2)[C@H](C)[C@@H](O)[C@]1(C)O`: the IC50 is 187 nM in the assay on Plasmodium falciparum [1], 455 nM with Plasmodium falciparum [2] and 118 nM with Plasmodium falciparum [3].
With `CC[C@H]1OC(=O)[C@H](C)[C@@H](O[C@H]2C[C@@](C)(OC)[C@@H](O)[C@H](C)O2)[C@H](C)[C@@H](O[C@@H]2O[C@H](C)C[C@H](N(C)C)[C@H]2O)[C@](C)(O)C[C@@H](C)CN(CCCNC(=S)Nc2ccc(OC(F)F)cc2)[C@H](C)[C@@H](O)[C@]1(C)O`, the IC50 with Plasmodium falciparum [1] was 63 nM; with Plasmodium falciparum [2] it was 216 nM; with Plasmodium falciparum [3] it was 121 nM.
In the case of `CC[C@H]1OC(=O)[C@H](C)[C@@H](O[C@H]2C[C@@](C)(OC)[C@@H](O)[C@H](C)O2)[C@H](C)[C@@H](O[C@@H]2O[C@H](C)C[C@H](N(C)C)[C@H]2O)[C@](C)(O)C[C@@H](C)CN(CCCNC(=S)Nc2ccccc2F)[C@H](C)[C@@H](O)[C@]1(C)O`, the IC50 in the assay with Plasmodium falciparum [1] turned out to be 400 nM; in the assay on Plasmodium falciparum [2], 987 nM; in the assay on Plasmodium falciparum [3], 122 nM.
For the compound `CC[C@H]1OC(=O)[C@H](C)[C@@H](O[C@H]2C[C@@](C)(OC)[C@@H](O)[C@H](C)O2)[C@H](C)[C@@H](O[C@@H]2O[C@H](C)C[C@H](N(C)C)[C@H]2O)[C@](C)(O)C[C@@H](C)CN(CCCNC(=S)N[C@H]2CCCC[C@H]2OCc2ccccc2)[C@H](C)[C@@H](O)[C@]1(C)O`, the IC50 with Plasmodium falciparum [1] turned out to be 274 nM; in the assay on Plasmodium falciparum [2] it was 645 nM; in the assay on Plasmodium falciparum [3], 126 nM.
On the same counts, the results for `CC[C@H]1OC(=O)[C@H](C)[C@@H](O[C@H]2C[C@@](C)(OC)[C@@H](O)[C@H](C)O2)[C@H](C)[C@@H](O[C@@H]2O[C@H](C)C[C@H](N(C)C)[C@H]2O)[C@](C)(O)C[C@@H](C)CN(CCCNC(=O)Nc2ccc(F)c(F)c2)[C@H](C)[C@@H](O)[C@]1(C)O` are 89.6 nM, 300 nM and 127 nM.
Take `CC[C@H]1OC(=O)[C@H](C)[C@@H](O[C@H]2C[C@@](C)(OC)[C@@H](O)[C@H](C)O2)[C@H](C)[C@@H](O[C@@H]2O[C@H](C)C[C@H](N(C)C)[C@H]2O)[C@](C)(O)C[C@@H](C)CN(CCCNC(=S)Nc2ccc(Oc3ccccc3)nc2)[C@H](C)[C@@H](O)[C@]1(C)O`: the IC50 in the assay on Plasmodium falciparum [1] stood at 109 nM; in the assay with Plasmodium falciparum [2], 215 nM; in the assay with Plasmodium falciparum [3] it was 133 nM.
On to `CC[C@H]1OC(=O)[C@H](C)[C@@H](O[C@H]2C[C@@](C)(OC)[C@@H](O)[C@H](C)O2)[C@H](C)[C@@H](O[C@@H]2O[C@H](C)C[C@H](N(C)C)[C@H]2O)[C@](C)(O)C[C@@H](C)CN(CCCNC(=O)Nc2cccc(SC)c2)[C@H](C)[C@@H](O)[C@]1(C)O`, for which the IC50 in the assay with Plasmodium falciparum [1] came out at 73.9 nM; in the assay on Plasmodium falciparum [2], 332 nM; in the assay with Plasmodium falciparum [3] it was 137 nM.
